Experimental data as given in the NIST ThermoML archive (doi:10.1007/s10765-006-0018-5).
Numbers after ± are expanded uncertainties.

Columns and labels:
[1] = Liquid
[2] = refractive index (Na D-line) (dimensionless); conditions: 298.15 K; 101.33 kPa; Liquid; Standard Abbe refractometry

SMILES | vapor or sublimation pressure ([1]; 410 K) [kPa] | refractive index [2] | vapor or sublimation pressure ([1]; 389.5 K) [kPa]
Cc1ccc(C)cc1 [1,4-dimethylbenzene] | 97.3 ± 1.6 | 1.49325 ± 0.00075 | 
CCCCO [butan-1-ol] |  | 1.3973 ± 0.0008 | 97.3 ± 1.6
